In PubChem BioAssay (NCI):
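Grown in 96-well plates, cells were treated for 48 hours with each compound at five concentrations. Insufficient inhibition: endpoint recorded as highest concentration tested. TGI: total growth inhibition.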

Legend:
Assay in all cases: NCI-60 cell line screen, 48 h
SK-MEL-2 melanoma = tested on: SK-MEL-2 melanoma
HS 578T breast = tested on: HS 578T breast
NCI-H23 lung = tested on: NCI-H23 lung
OVCAR-4 ovarian = tested on: OVCAR-4 ovarian
OVCAR-3 ovarian = tested on: OVCAR-3 ovarian
COLO 205 colon = tested on: COLO 205 colon
UO-31 renal = tested on: UO-31 renal
NCI/ADR-RES ovarian = tested on: NCI/ADR-RES ovarian
CCRF-CEM leukemia = tested on: CCRF-CEM leukemia
HOP-92 NSCLC = tested on: HOP-92 NSCLC
MDA-MB-231 breast = tested on: MDA-MB-231 breast
HOP-62 NSCLC = tested on: HOP-62 NSCLC
T-47D breast = tested on: T-47D breast
SW-620 colon = tested on: SW-620 colon
HL-60(TB) leukemia = tested on: HL-60(TB) leukemia
MCF7 breast = tested on: MCF7 breast
SK-MEL-28 melanoma = tested on: SK-MEL-28 melanoma
KM12 colon = tested on: KM12 colon
HCT-15 colon = tested on: HCT-15 colon
MALME-3M melanoma = tested on: MALME-3M melanoma
SK-MEL-5 melanoma = tested on: SK-MEL-5 melanoma
LOX IMVI melanoma = tested on: LOX IMVI melanoma
SNB-75 CNS = tested on: SNB-75 CNS
TK-10 renal = tested on: TK-10 renal
K-562 leukemia = tested on: K-562 leukemia
SN12C renal = tested on: SN12C renal
SR leukemia = tested on: SR leukemia
SNB-19 CNS = tested on: SNB-19 CNS
SK-OV-3 ovarian = tested on: SK-OV-3 ovarian
M14 melanoma = tested on: M14 melanoma
NCI-H460 lung = tested on: NCI-H460 lung
786-0 renal = tested on: 786-0 renal
NCI-H522 lung = tested on: NCI-H522 lung
HCC-2998 colon = tested on: HCC-2998 colon
DU-145 prostate = tested on: DU-145 prostate
MDA-N = tested on: MDA-N
SF-295 CNS = tested on: SF-295 CNS
ACHN renal = tested on: ACHN renal
HCT-116 colon = tested on: HCT-116 colon
RPMI-8226 leukemia = tested on: RPMI-8226 leukemia
UACC-257 melanoma = tested on: UACC-257 melanoma
HT29 colon = tested on: HT29 colon
U251 CNS = tested on: U251 CNS
CAKI-1 renal = tested on: CAKI-1 renal
EKVX NSCLC = tested on: EKVX NSCLC
A549 NSCLC = tested on: A549 NSCLC
RXF 393 renal = tested on: RXF 393 renal
SF-268 CNS = tested on: SF-268 CNS
OVCAR-5 ovarian = tested on: OVCAR-5 ovarian
IGROV1 ovarian = tested on: IGROV1 ovarian
A498 renal = tested on: A498 renal
OVCAR-8 ovarian = tested on: OVCAR-8 ovarian
MDA-MB-435 = tested on: MDA-MB-435
PC-3 prostate = tested on: PC-3 prostate
BT-549 breast = tested on: BT-549 breast
UACC-62 melanoma = tested on: UACC-62 melanoma
NCI-H226 lung = tested on: NCI-H226 lung
MOLT-4 leukemia = tested on: MOLT-4 leukemia
SF-539 CNS = tested on: SF-539 CNS

Measured: TGI

OC(Cc1cccnc1)(c1ccccc1)c1ccccc1
not listed: MOLT-4 leukemia | SF-539 CNS
> 100 µM: all other assays above

O=C(O)/C=N/NC(=S)NC1CCCCC1
not listed: RXF 393 renal | SF-268 CNS
> 100 µM: all other assays above
